≈ marks a conversion by molar mass, not a printed value.
Assays:
[1] = system: Caco-2 cell model; test: gastrointestinal permeability using the Caco-2 cell model; assay type: in vitro ADME
Protocol: (§1) Tasquinimod is a compound having high gastrointestinal permeability and high aqueous solubility. […] For a drug compound to be classified as “highly soluble” according to the BCS, the highest single therapeutic dose thereof should be completely soluble in 250 ml or less of aqueous media over the pH range of 1.2-6.8 at 37±1° C. […] Based on these properties, tasquinimod is classified as a BCS Class I compound. […] In view of the high water-solubility of tasquinimod, the low dissolution rate of tasquinimod particles in aqueous phase was completely unexpected. A low dissolution rate is susceptible of reducing the bioavailability and may pose an obstacle to an efficient oral administration of an otherwise therapeutically active compound.

[2] = as above; assay type: in vitro ADME; conditions: human, read-out: permeability coefficient
Protocol: as §1

[3] = Biopharmaceutics Classification System (BCS) classification; assay type: physicochemical; conditions: based on permeability and solubility
Protocol: as §1

[4] = pKa of tasquinimod; assay type: physicochemical; conditions: weak acid
[5] = aqueous solubility of tasquinimod; assay type: physicochemical
Protocol: as §1

permeability ranking according to the Biopharmaceutics Classification System (BCS) [1]: highly permeable | Papp [2]: 43.5 ± 0.9 ×10⁻⁶ cm/s | BCS class [3]: BCS Class I | pKa [4]: 6.5 | solubility relative to BCS "highly soluble" cut-off value ([5]; aqueous media over the pH range of 1.2-6.8 at 37±1° C.): ten-fold | solubility ([5]; aqueous medium, pH 7.4, aqueous buffer): 250 µg/mL (≈ 615 µM) | solubility relative to BCS "highly soluble" cut-off value ([5]; physiological pH at 7.4): 50 fold
Compound: COc1cccc2c1c(O)c(C(=O)N(C)c1ccc(C(F)(F)F)cc1)c(=O)n2C [tasquinimod, 4-hydroxy-5-methoxy-N, 1-dimethyl-2-oxo-N-[4-(trifluoromethyl)phenyl]-1,2-dihydroquinoline-3-carboxamide]

From patent publication US12485095B2, “Plurality of tasquinimod particles and use thereof” (ACTIVE BIOTECH AB, priority 2021, dated 2025)
